Results on one compound are retold here after patent publication US20210361563A1, “TRANSDERMAL SYSTEM FOR SYNERGISTIC IMMUNE-CHEMOTHERAPY USING MICRONEEDLES AND METHOD OF TREATMENT THEREOF” (THE UNIVERSITY OF HONG KONG, priority 2020, published 2021).

Series [1] can be described thus: H&E staining of liver, lung, kidney and spleen. It counts as in vivo, C3H/HeJ mice. An excerpt: Liver, lung, kidney and spleen of each group were collected after sacrifice for hematoxylin and eosin (H&E) staining to analyze whether drugs induced toxicity to these organs (FIG. 6C).
The livers, kidneys, spleens and lungs were collected after sacrifice and fixed in 4% PFA. After embedding into paraffin, the tissues were sliced into 5-μm sections for H&E staining. Images of the tissues were collected using a polarized light microscope (ECLIPSE LV100POL, Japan). The BUN and total IgG level in the serum were detected using a urea nitrogen detection kit (Thermo Fisher Scientific, USA) and a mouse IgG total ELISA kit (ThermoFisher Scientific, USA) respectively.

Series [2] relates to CD4+ and CD8+ T-cells in tumor. Put plainly: T-cell infiltration in tumor tissues by flow cytometry. It counts as in vivo, C3H/HeJ mice. The settings on record: tumor tissue after sacrifice. The method, then: (§1) To evaluate T-cell responses and the immune profile, tumor tissues and blood were harvested after sacrifice. aPD-1, being an ICB, could be a positive regulator of TILs. The infiltration of CD4+ T-cells and CD8+ T-cells into tumor cells was assessed through flow cytometry. […] To reveal the cellular mechanism in vivo, the production of IFN-γ and TNF-α was determined using ELISA kit in mice serum. […] (FIG. 5E)
A piece of tumor was collected from each mouse for flow cytometry. After execution, the tissues were rinsed with PBS and maintained in PBS at 4° C. The tumor tissues were sliced into very small pieces and sieved through 100 μm cell strainer (BD Falcon, USA). Subsequently, the sliced tissue was pressed using the plunger end of a syringe. The supernatant was decanted and the pellet resuspended the pellet in Flow Cytometry Staining Buffer (PBS plus 10% FBS). The solution was separated into two Eppendorf tubes with a volume of 300 μL, then 1 μL primary antibody was added into one of the two tubes individually. The three primary antibodies used were rabbit anti-CD4 (Abcam, Cambridge, Mass., USA), rat anti-CD8 (Abcam, USA), and mouse anti-foxp3 (Abcam,USA). […]
(In general: Flow cytometry measures light scatter and fluorescence of single cells or particles in a stream.)

For a further series, the system named is cell lines. In words: Cell apoptosis (APO-BrdU TUNEL) and cell cycle (PI) by flow cytometry. It is filed as cell-based. Particulars: Pt 100 μM, 4 h. As to the method:
A large number of 3hydroxyl ends appeared when DNA strands became fragmented, and they were labeled with BrdUTP and terminal deoxynucleotidyl transferase (TdT) using the TUNEL technique. After DNA incorporation, BrdU could be detected through anti-BrdU antibody.
Cell apoptosis was detected using flow cytometry with the APO-BrdU™ tranferase dUTP nick end laveling (TUNEL) Assay Kit (Thermo Fisher Scientific, USA), and the phase of the cell cycle was determined using propidium iodide (PI, Thermo Fisher Scientific, USA) following the manufacturer's protocol. Cells were fixed with 1% paraformaldehyde (PFA) or ethanol before staining, and they were analyzed through flow cytometry (BD FACSVerse™, BD, Franklin Lake, N.J., USA) immediately after staining. All data were analyzed using FlowJo (7.6.1, BD, USA).

The subject of series [3] is SCC VII-luc tumor homograft. Put plainly: Antitumor efficiency in immunocompetent murine tumor homograft model. It is filed as in vivo, C3H/HeJ mice. An excerpt:
We further investigated tumor inhibition on an immunocompetent murine tumor homograft model. SCC VII cell lines were subcutaneously inoculated into the right flank of C3H/HeJ mice to obtain a superficial tumor. […] Tumor volume was monitored using a Vernier caliper before the treatment and 3 days after each treatment. Furthermore, tumor growth was double confirmed using bioluminescent images (FIG. 3A). […] The ineffective therapeutic role of aPD-1, however, may be due to the following reasons. First, the renovated T cells may be too exhausted that they display impaired effector function with limited proliferative potential ^26. Second, cancer antigens may be “masked”; therefore, they cannot be identified by T-cells ^27. Third, the tumor microenvironment may contain multiple inhibitory immune cells, such as tumor-associated macrophages, which overwhelm the T-cells into have adverse effects ^28. Although the exact reason was unclear, the animal model in this study was unresponsive to systemic aPD-1 immunotherapy.
Male and female C3H/HeJ mice were purchased from The Jackson Laboratory (Bar Harbor, Me., USA) and bred in the Laboratory Animal Unit in the University of Hong Kong. All animal procedures were performed in accordance with a protocol approved by the Committee on the Used of Live Animals in Teaching and Research (CULATR, HKU). An immunocompetent murine tumor homograft model was established by injecting 1×10^6 SCC VII-luc cells suspended in 100 μL Hanks' balanced salt solution (HBSS, Gibco, USA) on the right flank of the mouse. […] The treatments were administered once the tumor volume reached 10 mm^3 and each treatment was administered every 3 days and lasted for 3 cycles. […] The tumor size was monitored by both the bioluminescence signals and the Vernier calipers every 3 days. Tumor volume was calculated as 0.5× long diameter×short diameter^2. Tumor volume and tumor wet weight were also measured after sacrifice. Tumor proliferation was determined in sliced tumor tissues using anti-Ki67 (Abcam, USA) following the IHC protocol.

Another series has as its system IFN-γ, TNF-α. In words: Serum IFN-γ and TNF-α ELISA. It counts as in vivo, C3H/HeJ mice. The method, then:
as §1
Blood was collected from mice and maintained in anticoagulative tubes ([…]® Blood Collection Tubes, K3E K3EDTA, Greiner Bio-One International, Australia). Blood was centrifuged at 1500 g for 10 minutes at 4° C., then plasma was transferred into a new Eppendorf. After centrifugation at 2000 g for 15 mins at 4° C., the supernatant was collected to obtain the serum of mice. IFN-γ and TNF-α in the serum were detected using Mouse IFN-γ ELISA kit (Thermo Fisher Scientific, USA) and Mouse TNF-α ELISA kit (Thermo Fisher Scientific, USA), respectively.
Background: An ELISA detects its analyte on a solid surface through an enzyme-linked reagent.

The test system of series [4] is SCC VII-luc tumor homograft. In words: Ki-67 IHC cell proliferation in tumor tissue sections. It is filed as in vivo, C3H/HeJ mice. The method, then:
Cell proliferation was further confirmed through IHC in formalin-fixed paraffin-embedded tumor tissue sections. […] Tumor infiltrating lymphocytes (TILs) like CD4+ cells and CD8+ infiltrated the tumor tissue and started to proliferate after aPD-1 treatment. […] TILs attacked the tumor tissues and killed the tumor cells afterwards. Whether these proliferated cells were T-cells or tumor cells were further confirmed through flow cytometry. Additionally, tumor cell apoptosis was assessed through in situ TUNEL assay (FIG. 4B & 4D). […] In sum, aPD-1-CDDP-NPs MN can not only increase the amount of activated T-cells but also kill tumor cells.
Male and female C3H/HeJ mice were purchased from The Jackson Laboratory (Bar Harbor, Me., USA) and bred in the Laboratory Animal Unit in the University of Hong Kong. All animal procedures were performed in accordance with a protocol approved by the Committee on the Used of Live Animals in Teaching and Research (CULATR, HKU). […] The tumor size was monitored by both the bioluminescence signals and the Vernier calipers every 3 days. Tumor volume was calculated as 0.5× long diameter×short diameter^2. Tumor volume and tumor wet weight were also measured after sacrifice. Tumor proliferation was determined in sliced tumor tissues using anti-Ki67 (Abcam, USA) following the IHC protocol.

For the compound `N.N.[Cl][Pt][Cl]` [CDDP, cis-Diammineplatinum(II)dichloride], the “kidney histology (H&E)” value in series [1] (kidney) is on record as “severe toxic tubular necrosis”. For the same compound, in series [1] (liver), the “liver histology (H&E)” value is reported as “some alterations were found in the liver parenchyma”. The “lung histology (H&E)” value in series [1] (lung) is “diffuse damage of the pulmonary alveoli and severe inflammatory infiltration”. The “spleen histology (H&E)” value in series [1] (spleen) is on record as “white pulp was evidently reduced”. The “CD8+ T-cells among tumor cells” value in series [2] worked out at 4.478%. For the same compound, the cell apoptosis with cell lines worked out at 2.79%. Further, the “antitumor effect (in words)” value in series [3] (SCC VII homograft, three treatments) is on record as “limited treatment efficacy”. Besides, in series [3] (mouse, in vivo), the “tumor volume compared to control group (in words)” value is on record as “no difference” and the “tumor weight compared to control group (in words)” value was “significantly reduced”. In addition, the “IFN-γ level in serum” value with IFN-γ, TNF-α is “lower IFN-γ levels than other five groups”. For the same compound, the “cells continuing to proliferate (Ki-67)” value in series [4] turned out to be 25%.
